The source of these data is patent publication US8053467B2, “Flavor improving agent, and food and drink containing the same” (Takasago International Corporation, priority 2006, dated 2011).

A short description of experiment [1]: Bitterness threshold by sensory evaluation test (panel of 9 experts). In kind it is in vivo. The following applies: for bitterness at the maximum concentration: at 0.1% by weight, the maximum concentration (1000 times the acetal threshold). The method, then:
100 mg of 5-hydroxymethyl-2-furaldehyde bis(5-formylfurfuryl)acetal obtained in Example 1 was dissolved in 1 mL of ethanol, and 100 mL of water was added to produce 0.1% by weight of a 1 wt. % ethanol solution. This solution was diluted 10-fold with water repeatedly to prepare samples for evaluation. In consideration of the taste of ethanol itself, a 1 wt. % ethanol solution was prepared and diluted 10-fold with water repeatedly to prepare blanks respectively corresponding to the samples for evaluation. The evaluation was performed by a panel of 9 experts. The sensory evaluation test was performed from a sample/blank having a lower concentration. In the order of blanks to samples, the experts held 200 mg of each sample/blank in the mouth and evaluated the difference in taste.

Experiment [2] is described as follows: Sensory evaluation of the flavor improving agents for the sugar-free sweetener. In kind it is in vivo. The method, then:
A sugar-free sweetener having the formulation shown in Table 2 was obtained, and 12 g of the sugar-free sweetener was dissolved in 1 kg of ion exchanged water to obtain a 1.2 wt. % aqueous solution. 60 mg of the flavor improving agent in Example 2 was added to 300 g of the aqueous solution to obtain a sugar-free sweetener solution sample containing 0.02% by weight of the flavor improving agent. The content of 5-hydroxymethyl-2-furaldehyde bis(5-formylfurfuryl)acetal in the sugar-free sweetener was 0.00014% by weight.
This sample was evaluated with regard to the items shown in Table 3 by a sensory evaluation method of comparing a sample with a control product. The evaluation was performed by a panel of 5 trained experts. The sample was evaluated with the points in the range of −3 to +3, with setting the control product at 0 point. The control product was not provided with a flavor improving agent (provided with ethanol).
The numerals in the table are the averages of the 5 experts.

For experiment [3] the following is noted: literature report; cited from earlier work.
Experiment [4] is described as follows: Sensory evaluation of the flavor improving agents for the coffee drink. In kind it is in vivo. Particulars: summary of Table 10. The procedure:
60 mg of the flavor improving agent in Example 2 was added to 300 g of commercially available canned coffee to obtain a coffee drink containing 0.02% by weight of the flavor improving agent. The content of 5-hydroxymethyl-2-furaldehyde bis(5-formylfurfuryl)acetal in this coffee drink was 0.00014% by weight.
This coffee drink was evaluated with regard to the items shown in Table 10 by a sensory evaluation method of comparing a sample with a control product. The evaluation was performed by a panel of 5 trained experts. Sensory evaluation of the coffee drink was carried out with the points in the range of −3 to +3, with setting the control product at 0 point, in the same manner as in Example 9. The control product was not provided with a flavor improving agent (provided with ethanol).

Where [5] appears, read: same type of test as Example 9, agents prepared as in Example 2 with formulas (2) and (3), also with 100 times the amount.
Where [6] appears, read: sugar-free sweetener solution, summary of Table 3.

In the case of `O=Cc1ccc(COC(OCc2ccc(C=O)o2)c2ccc(CO)o2)o1` [acetal compound of the present invention, 5-hydroxymethyl-2-furaldehyde bis(5-formylfurfuryl)acetal], the bitterness threshold in experiment [1] (1 ppm expressed in %) is 0.0001%; in experiment [1] (1 ppm expressed in % by weight) it was 0.0001 % by weight; in experiment [1] (10-fold dilutions in water vs ethanol blanks, panel of 9 experts), 1 ppm. Besides, in experiment [1] (converted from 1 ppm), the “bitterness threshold converted to the molar concentration” value was “about 10^−3 mM”.
Regarding `O=Cc1ccc(CO)o1` [formula (2), 5-hydroxymethyl-2-furaldehyde], the “flavor improving effect in words” value in experiment [2] (setting [5]) was “None of the agents exhibited any flavor improving effect and provided various unpleasant tastes including astringency”. The reported taste result in experiment [3] was “unpleasant taste”. The “bitterness at the maximum concentration” value in experiment [1] is on record as “did not provide bitterness”.
As to `O=Cc1ccc(COCc2ccc(C=O)o2)o1` [formula (3)], the “flavor improving effect in words” value in experiment [2] (setting [5]) is “None of the agents exhibited any flavor improving effect and provided various unpleasant tastes including astringency”. In experiment [3], the reported taste result was “unpleasant taste”. In experiment [1], the “bitterness at the maximum concentration” value is on record as “did not provide bitterness”.
For the compound `C[C@@H]1O[C@@H](O[C@H]2[C@H](Oc3cc(O)c4c(c3)O[C@H](c3ccc(O)cc3)CC4=O)O[C@H](CO)[C@@H](O)[C@@H]2O)[C@H](O)[C@H](O)[C@H]1O` [naringin], the “flavor effect in words” value in experiment [4] is “medicine-like unnatural bitterness and are poor in attractiveness”.
With `O.O.O.O.O.O.O.O.O.O.O.O.O=S(=O)([O-])[O-].O=S(=O)([O-])[O-].[Al+3].[K+]` [potassium alum], in experiment [2] (setting [6]), the “flavor improving effect in words” value is reported as “poor effect of reducing astringency or improving the sense of volume”.
As to diheterolevulosan II, in experiment [4], the “flavor effect in words” value is “medicine-like unnatural bitterness and are poor in attractiveness”.
On to αG hesperidin, for which the “flavor improving effect in words” value in experiment [2] (setting [6]) is “poor effect of reducing astringency or improving the sense of volume”.
